Laboratory results taken from patent publication US7476753B2, “3-aryl-2-cyano-3-hydroxy-acrylic acid derivatives” (Ciba Specialty Chemicals Corporation, priority 2003, dated 2009).
Values after ≈ are worked out from the molar mass of the structure shown. Like-named read-outs stand apart in the source and are kept apart here.

What was measured:
[1] = test system: Actinomyces viscosus ATCC 43146; assay: Automatic MIC-Screening, broth dilution method; type: cell-based; settings: micro titer plates, 37° C., 24 hours, tested 120 to 3.75 μg/ml
Method: (§1) Determination of the Minimum Inhibitory Concentration (MIC Value)
(§2) 8 μl of each dilution step is mixed with 192 μl of nutrient medium in micro titer plates. The plates are incubated at 37° C. for 24 hours and then the highest dilution (lowest concentration) of the test substance at which growth is just no longer discernible is determined (corresponds to the MIC).

[2] = test system: Corynebacterium sp. (Corynebacterium xerosis ATCC 373 oder C. minutissimum ATCC 23348); assay: Automatic MIC-Screening, broth dilution method; type: cell-based; settings: micro titer plates, 37° C., 24 hours, tested 120 to 3.75 μg/ml
Method: as §1, §2

[3] = test system: Staphylococcus aureus ATCC 6538; assay: Automatic MIC-Screening, broth dilution method; type: cell-based; settings: micro titer plates, 37° C., 24 hours, tested 120 to 3.75 μg/ml
Method: as §1, §2

[4] = test system: A. actinomycetemcomitans ATCC43718; assay: MIC vs. oral germs, broth dilution method; type: cell-based, Actinobacillus actinomycetemcomitans; settings: for MIC: Aggregatibacter actinomycetemcomitans, read-out: MHK (MIC) A. actinomycetemcomitans ATCC43718
Description: (§3) b) Determination of MIC vs. different oral germs in the broth dilution method • Medium: Thioglycolate Bouillon with Hemin and Menadion Columbia Bouillon with Hemin and Menadion für P. gingivalis und P. nigrescens • diluent: the corresponding amount of the substances was pippeted directly • Examples of Test organisms: • Actinobacillus actinomycetemcomitans ATCC43718 • Streptococcus gordonii ATCC10558 • Streptococcus mutans ATCC33402 • Actinomyces viscosus ATCC43146 • Fusobacterium nucleatum subsp. polymorphum ATCC1095 • Porphyromonas gingivalis ATCC3277 • Prevotella nigrescens ATCC33563 • Incubation: 7-10 days at 37° C. under anaerobic conditions, resp. 24 h aerobically with 10% CO2 for Streptococci und A. actinomycetemcomitans • Test solution: Stock solutions in ethanol with 1500 ppm (w/w) are used from all test substances
(§4) Bacteria are taken from blood agar plates with cotton swabs and a suitable O.D. is adjusted in the corresponding medium (McFarland 0.5). This solution is used for F. nucleatum and P. nigrescens in undiluted state, for the other strains a dilution of 1:20 is used. To each 2 ml of active ingredient containing solution 0.1 ml of the bacteria culture is added and incubated as described above.

S. gordonii ATCC10558 = assay: MIC vs. oral germs, broth dilution method; type: cell-based, Streptococcus gordonii; settings: for MIC: Streptococcus gordonii, read-out: MHK (MIC) S. gordonii ATCC10558
Description: as §3, §4

S. mutans ATCC33402 = assay: MIC vs. oral germs, broth dilution method; type: cell-based, Streptococcus mutans; settings: for MIC: Streptococcus mutans, read-out: MHK (MIC) S. mutans ATCC33402
Description: as §3, §4

A. viscosus ATCC43146 = assay: MIC vs. oral germs, broth dilution method; type: cell-based, Actinomyces viscosus; settings: for MIC: Actinomyces viscosus
Description: as §3, §4

[5] = test system: F. nucleatum subsp. polymorphum ATCC10953; assay: MIC vs. oral germs, broth dilution method; type: cell-based, Fusobacterium nucleatum subsp. polymorphum; settings: for MIC: Fusobacterium nucleatum
Description: as §3, §4

P. gingivalis ATCC3277 = assay: MIC vs. oral germs, broth dilution method; type: cell-based, Porphyromonas gingivalis; settings: for MIC: Porphyromonas gingivalis
Description: as §3, §4

P. nigrescens ATCC33563 = assay: MIC vs. oral germs, broth dilution method; type: cell-based, Prevotella nigrescens; settings: for MIC: Prevotella nigrescens
Description: as §3, §4

[6] = test system: Aspergillus niger ATCC 6275; assay: MIC, Agar incorporation test; type: cell-based; settings: for MIC: Aspergillus niger, ATCC6275
Method: (§5) 0.3 ml of each dilution step is mixed with 15 ml of nutrient medium while the latter is still liquid. After the nutrient medium has solidified, 10 μl of each of the following organism dilutions of the test strains in 0.85% NaCl solution are spotted onto the agar medium.
(§6) The plates are incubated during 24 hours at 37° C. and then the highest dilution (lowest concentration) of the test substance at which growth is just no longer discernible (corresponds to the MIC) is determined.

[7] = test system: C. minutissimum ATCC 23348; assay: MIC, Agar incorporation test; type: cell-based; settings: for MIC: Corynebacterium minutissimum, ATCC23348, 24 hours at 37° C.
Method: as §5, §6

[8] = test system: Corynebacterium xerosis ATCC 373; assay: MIC, Agar incorporation test; type: cell-based; settings: for MIC: Corynebacterium xerosis, ATCC373, 24 hours at 37° C.
Method: as §5, §6

[9] = test system: Escherischia coli ATCC 10536; assay: MIC, Agar incorporation test; type: cell-based; settings: 24 hours at 37° C.
Method: as §5, §6

[10] = test system: Klebsiella pneumoniae ATCC 4352; assay: MIC, Agar incorporation test; type: cell-based; settings: for MIC: Klebsiella pneumoniae, ATCC4352, 24 hours at 37° C.
Method: as §5, §6

[11] = test system: Propionibacterium acnes ATCC 6919; assay: MIC, Agar incorporation test; type: cell-based; settings: for MIC: Cutibacterium acnes, ATCC6919, 24 hours at 37° C.
Method: as §5, §6

[12] = test system: Proteus vulgaris ATCC 6896; assay: MIC, Agar incorporation test; type: cell-based; settings: for MIC: Proteus vulgaris, ATCC6896, 24 hours at 37° C.
Method: as §5, §6

[13] = test system: Pseudomonas aeruginosa ATCC 15442; assay: MIC, Agar incorporation test; type: cell-based; settings: for MIC: Pseudomonas aeruginosa, ATCC15442, 24 hours at 37° C.
Method: as §5, §6

[14] = test system: Staphylococcus aureus ATCC 6538; assay: MIC, Agar incorporation test; type: cell-based; settings: for MIC: Staphylococcus aureus, ATCC6538, 24 hours at 37° C.
Method: as §5, §6

[15] = test system: Staphylococcus epidermidis ATCC 12228; assay: MIC, Agar incorporation test; type: cell-based; settings: for MIC: Staphylococcus epidermidis, ATCC12228, 24 hours at 37° C.
Method: as §5, §6

[16] = test system: Candida albicans ATCC 10231; assay: MIC, Agar incorporation test; type: cell-based; settings: Sabouraud 4% glucose agar, 3 days at 28° C.; for MIC: Candida albicans, ATCC10231, 72 h
Method: 0.3 ml of each dilution step is mixed with 15 ml of nutrient medium while the latter is still liquid. After the nutrient medium has solidified, 10 μl of each of the following organism dilutions of the test strains in 0.85% NaCl solution are spotted onto the agar medium. […]

[17] = test system: Salmonella choleraesuis ATCC 9184; assay: MIC, Agar incorporation test; type: cell-based; settings: 24 hours at 37° C.
[18] = ATCC43146, read-out: MHK (MIC) A. viscosus ATCC43146
[19] = ATCC10953, read-out: MHK (MIC) F. nucleatum subsp. polymorphum ATCC10953
[20] = ATCC3277, read-out: MHK (MIC) P. gingivalis ATCC3277
[21] = ATCC33563, read-out: MHK (MIC) P. nigrescens ATCC33563
[22] = broth dilution, 24 h aerobically with 10% CO2, 37° C.
[23] = broth dilution, 7-10 days at 37° C., anaerobic
[24] = broth dilution, Columbia Bouillon with Hemin and Menadion, 7-10 days at 37° C., anaerobic

Compound	MIK (MIC) A. viscosus [1] [μγ/ml]	MIK (MIC) Corynebacterium sp. [2] [μγ/ml]	MIK (MIC) S. aureus [3] [μγ/ml]	MIC ([4]; ATCC43718, 24 h) [µg/mL]	MIC (S. gordonii ATCC10558; ATCC10558, 24 h) [µg/mL]	MIC (S. mutans ATCC33402; ATCC33402, 24 h) [µg/mL]	MIC (A. viscosus ATCC43146; [18]) [µg/mL]	MIC [5, 19] [µg/mL]	MIC (P. gingivalis ATCC3277; [20]) [µg/mL]	MIC (P. nigrescens ATCC33563; [21]) [µg/mL]	MIC [6] [µg/mL]	MIC [7] [µg/mL]	MIC [8] [µg/mL]	MIC [9] [µg/mL]	MIC [10] [µg/mL]	MIC [11] [µg/mL]	MIC [13] [µg/mL]	MIC [14] [µg/mL]	MIC [15] [µg/mL]	MIC [16] [µg/mL]	further results
CCCCOC(=O)/C(C#N)=C(\O)c1ccc(-c2ccccc2)cc1 [(101b), 3-biphenyl-4-yl-2-cyano-3-hydroxy-acrylic acid butylester]	7.5	15	7.5	15 (≈ 46.7 µM)	3.75 (≈ 11.7 µM)	5.63 (≈ 17.5 µM)	3.75 (≈ 11.7 µM)	≤ 0.94	3.75 (≈ 11.7 µM)	> 15	> 100	12.5 (≈ 38.9 µM)	3.13 (≈ 9.74 µM)	> 100	> 100	12.5 (≈ 38.9 µM)	> 100	6.25 (≈ 19.4 µM)	6.25 (≈ 19.4 µM)	> 100	MIC [12]: > 100 µg/mL
CC(C)COC(=O)/C(C#N)=C(\O)c1ccc(-c2ccccc2)cc1 [(101c), 3-biphenyl-4-yl-2-cyano-3-hydroxy-acrylic acid isobutylester]	7.5	7.5	7.5	15 (≈ 46.7 µM)	3.75 (≈ 11.7 µM)	5.63 (≈ 17.5 µM)	7.5 (≈ 23.3 µM)	7.5 (≈ 23.3 µM)	7.5 (≈ 23.3 µM)	> 15	> 50	12.5 (≈ 38.9 µM)	3.13 (≈ 9.74 µM)	> 50	> 50	12.5 (≈ 38.9 µM)	> 50	12.5 (≈ 38.9 µM)	6.25 (≈ 19.4 µM)	> 50	MIC [12]: > 50 µg/mL
CCCCCCCCOC(=O)/C(C#N)=C(\O)c1ccc(-c2ccccc2)cc1 [(101d), 3-biphenyl-4-yl-2-cyano-3-hydroxy-acrylic acid octylester]	<3.75	<3.75	<3.75	≥ 15	≤ 0.94	≤ 0.94	≤ 0.94	15 (≈ 39.7 µM)	7.5 (≈ 19.9 µM)	> 15	> 400	< 1.56	< 1.56	> 400	> 400	6.25 (≈ 16.6 µM)	> 400	< 1.56	< 1.56	> 400	MIC [12]: > 400 µg/mL
CCCCC(CC)COC(=O)C(C#N)=C(O)c1ccc(-c2ccccc2)cc1 (stereo not shown) [(101e), 3-biphenyl-4-yl-2-cyano-3-hydroxy-acrylic acid 2-ethyl-hexylester]	–	–	–	> 15	< 0.94	< 0.94	< 0.94	> 15	15 (≈ 39.7 µM)	> 15	–	–	1.9 (≈ 5.03 µM)	> 500	–	0.94 (≈ 2.49 µM)	> 500	1.9 (≈ 5.03 µM)	1.9 (≈ 5.03 µM)	> 500	–
CCCCCCCCOC(=O)/C(C#N)=C(\O)c1ccc(-c2ccc(/C(O)=C(\C#N)C(=O)OCCCCCCCC)cc2)cc1 [(102a)]	<3.75	>120	<3.75	–	–	–	–	–	–	–	–	–	–	–	–	–	–	–	–	–	MIC ([4]; ATCC43718, broth dilution, 24 h aerobically with 10% CO2, 37° C.): > 15 µg/mL; MIC (S. gordonii ATCC10558; ATCC10558, broth dilution, 24 h aerobically with 10% CO2, 37° C.): 15 µg/mL (≈ 25 µM); MIC (S. mutans ATCC33402; ATCC33402, broth dilution, 24 h aerobically with 10% CO2, 37° C.): > 15 µg/mL; MIC (A. viscosus ATCC43146; ATCC43146, broth dilution, 7-10 days at 37° C., anaerobic, read-out: MHK (MIC) A. viscosus ATCC43146): 7.5 µg/mL (≈ 12.5 µM); MIC ([5]; ATCC10953, broth dilution, 7-10 days at 37° C., anaerobic, read-out: MHK (MIC) F. nucleatum subsp. polymorphum ATCC10953): ≥ 15 µg/mL; MIC (P. gingivalis ATCC3277; ATCC3277, broth dilution, Columbia Bouillon with Hemin and Menadion, 7-10 days at 37° C., anaerobic, read-out: MHK (MIC) P. gingivalis ATCC3277): > 15 µg/mL; MIC (P. nigrescens ATCC33563; ATCC33563, broth dilution, Columbia Bouillon with Hemin and Menadion, 7-10 days at 37° C., anaerobic, read-out: MHK (MIC) P. nigrescens ATCC33563): > 15 µg/mL
CCCCC(CC)COC(=O)C(C#N)=C(O)c1ccc(-c2ccc(C(O)=C(C#N)C(=O)OCC(CC)CCCC)cc2)cc1 (stereo not shown) [(102b)]	–	–	–	–	–	–	–	–	–	–	–	–	–	–	–	–	–	–	–	–	MHK (MIC) A. actinomycetemcomitans ATCC43718 [4, 22]: >15 ppm; MHK (MIC) S. gordonii ATCC10558 (S. gordonii ATCC10558; [22]): 15 ppm; MHK (MIC) S. mutans ATCC33402 (S. mutans ATCC33402; [22]): >15 ppm; MHK (MIC) A. viscosus ATCC43146 (A. viscosus ATCC43146; [23]): 7.5 ppm; MHK (MIC) F. nucleatum subsp. polymorphum ATCC10953 [5, 23]: >15 ppm; MHK (MIC) P. gingivalis ATCC3277 (P. gingivalis ATCC3277; [24]): >15 ppm; MHK (MIC) P. nigrescens ATCC33563 (P. nigrescens ATCC33563; [24]): >15 ppm; MIC Aspergillus niger ATCC 6275 [6]: >400 ppm; MIC C. minutissimum ATCC 23348 ([7]; 24 hours at 37° C.): 50 ppm; MIC Corynebacterium xerosis ATCC 373 ([8]; 24 hours at 37° C.): <1.56 ppm; MIC Escherischia coli ATCC 10536 [9]: >400 ppm; MIC Klebsiella pneumoniae ATCC 4352 ([10]; 24 hours at 37° C.): >400 ppm; MIC Propionibacterium acnes ATCC 6919 ([11]; 24 hours at 37° C.): <1.56 ppm; MIC Proteus vulgaris ATCC 6896 ([12]; 24 hours at 37° C.): >400 ppm; MIC Pseudomonas aeruginosa ATCC 15442 ([13]; 24 hours at 37° C.): >400 ppm; MIC Staphylococcus aureus ATCC 6538 ([14]; 24 hours at 37° C.): 100 ppm; MIC Staphylococcus epidermidis ATCC 12228 ([15]; 24 hours at 37° C.): 25 ppm; MIC Salmonella choleraesuis ATCC 9184 [17]: >400 ppm; MIC Candida albicans ATCC 10231 [16]: >400 ppm
